Measurements reported in patent US20240217946A1, “ANTIDEPRESSANT AND ANXIOLYTIC SUBSTITUTED CINNAMAMIDE COMPOUND” (TASLY PHARMACEUTICAL GROUP CO., LTD., priority 2021, published 2024).
Entries after “also recorded” stand apart in the source; their conditions may differ. Counter-ions that a name gives are not always drawn. Marks after values point to notes of the source that are not given here.

Key:
[1] = test system: DA reuptake in rat brain synaptosomes; experiment: 3H-DA reuptake by rat brain synaptosomes; type: biochemical; settings: 100 μM, positive control
Excerpt: At present, it is believed that absolute or relative deficiencies of the central monoamine neurotransmitters 5-hydroxytryptamine (5-HT), norepinephrine (NA) and dopamine (DA) are closely related to depression and anxiety. This experiment was designed to evaluate, by the method of in vitro monoamine reuptake, the inhibitory effect of two samples of tested compound I-5 and compound M2 on reuptake of 5-HT, NA and DA in rat brain synaptosomes. The preparation of in vitro SD rat brain synaptosomes and isotopic tracer method were employed to investigate IC50 of inhibition of monoamine reuptake of DA, 5-HT and NA in two tested samples, in order to explore the possible mechanism of antidepressant and anxiolytic effects of compound I-5 and compound M2.
Synaptosomes were separated using methods in literature to prepare brain synaptosomes. SD rats were rapidly decapitated with a small animal decapitator. After decapitation, brains were taken out quickly and precooled in an ice-water mixture, and the pia mater and vascular tissue were removed. Brain tissue was taken out. 10 times volume (ml/g) of 10 mM Tris HCl buffer (containing 0.32 M sucrose, pH 7.4) was added, an ultrasonic cell pulverizer was used for homogenization (maintaining at a low temperature), and the brain tissue was homogenized and centrifuged for 10 min (4° C., 1,000 g). After balanced centrifugation (1500 g, 10 min) at 4° C., precipitate was discarded, then supernatant was taken, and centrifugation (20000 g) was performed again for 30 min. The supernatant was discarded and the precipitate, i.e. crude extract of synaptic corpuscles, was retained. […] The precipitate was suspended in a small amount of Kreb's buffer (NaCl 118 mM, KCl 4.7 mM, CaCl2) 2.5 mM, MgSO4 1.2 mM, KH2PO4 1.2 mM, NaHCO325 mM and Glucose 11.1 mM, pH 7.2-7.4), BCA method was used for protein quantification, and the operation steps were as described in the description. […]
(§1) The percentage inhibition of isotope ligand binding by each compound was calculated according to the following equation: […]

mice [2] = settings: Patent C; cited from earlier work
ICR mice = experiment: Elevated plus maze experiment in mice, single administration; type: in vivo; settings: for OE % / OT %: 30 min after single administration
Procedure: 50 male ICR mice were randomly divided into 5 groups (a solvent control group, estazolam group, M2 high dosage group, M2 medium dosage group, M2 low dosage group), with 10 mice in each group. The compound M2 high, medium and low dosage groups were intragastrically administered at 20 mg/kg. 10 mg/kg and 5 mg/kg, respectively; the positive drug estazolam was intragastrically administered at 2.5 mg/kg; and the solvent control group was gavaged with an equal volume of solvent. Behavior test was performed in each group 30 min after single administration. The experiments were required to be conducted between 8:00 am and […], and all animals entered the test laboratory on the previous day.
The laboratory was dimly lit (with the lowest brightness that can distinguish the subtle activities of mice at a distance of 1.5 m) and the brightness was kept constant, with a room temperature of about 20° C., and kept quiet. Before the maze test, each mouse was placed in a 35 cm*10 cm*5 cm plastic box and left to explore freely for 5 min and then quickly placed at the central platform of an elevated plus maze, with its head facing one of the open arms, and the following indexes were recorded upon release. Each mouse was tested for 5 min. Observers observed and recorded animal activities at a distance of 1.5 m. At intervals, the maze was wiped with a wet cloth to remove feces, and then wiped with a dry cloth before a next mouse was tested.
• (1) The number of open arm entries (OE): the number of entries into any open arm, based on the fact that all four claws of the mouse entered the arm, and a complete exit of one claw from the arm indicated the completion of the entry activity; • (2) open arm time (OT): the time of entering an open arm, with the unit of seconds; • (3) the number of close arm entries (CE): the number of entries into any close arm, based on the fact that all four claws of the mouse entered the arm; • (4) close arm time (CT): the time of entering a close arm, with the unit of seconds; • (5) percentage of open arm time: OT %=OT/(OT+CT)*100%; and • (6) percentage of open arm entries: OE %=OE/(OE+CE)*100%.
70 male ICR mice were randomly divided into 7 groups (a solvent control group, estazolam group, compound M2 group, compound II-3 group, compound II-4 group, compound II-5 group, and compound II-10 group), with 10 mice in each group. The dosage of M2 and its four structurally similar compounds was determined as 20 mg/kg according to the experimental results of 3.1: the positive drug estazolam was administered intragastrically at 2.5 mg/kg; and the solvent control group was gavaged with an equal volume of solvent. Behavior test was performed in each group 30 min after single administration. The experiments were required to be conducted between 8:00 am and […], and all animals entered the test laboratory on the previous day.
The behavioral test method and behavioral observation indexes were the same as those in 3.1.
(§2) Data was expressed as mean±standard (mean±SD) difference, and statistics of data differences were made by one-way analysis of variance (ANOVA) or nonparametric test, and differences between groups were determined by P<0.05.

SD rats = experiment: Vogel drinking conflict experiment in rats, single administration; type: in vivo; settings: 30 min after single dose, punishment stage 3 min, n = 8
Procedure: 75 male SD rats, with the body weight of 180-220 g, were fed adaptively for 1 week, water deprived for 24 h for training period test. The animals screened to be qualified were randomly divided into 7 groups (a solvent control group, estazolam group, compound M2 group, compound II-3 group, compound II-4 group, compound II-5 group and compound II-10 group) according to their body weight, with 8 rats in each group. […] results of 3.1: the positive drug estazolam was administered intragastrically at 1.24 mg/kg; and the solvent control group was gavaged with an equal volume of solvent. The grouped animals were continued to be water deprived for 24 h and were given a single dose, and tested in a punishment experiment 30 min after the single dose.
The experiment was carried out in two stages. The first stage is a training stage, in which 24 h after water deprivation, animals were placed in an operation box separately, and were allowed to fully explore until they found the bottle mouth and started to lick water (with an intensity of electric shock being 0 mA), a counter automatically recorded the number of licks within 3 min, and the animals that licked water less than 300 times were eliminated.
Observation index: the number of water licks of rats in the punishment stage.
as §2

mice [3] = settings: 10 mg/kg continuously for 7 days; cited from earlier work
[4] = test system: NA reuptake in rat brain synaptosomes; experiment: 3H-NA reuptake by rat brain synaptosomes; type: biochemical; settings: 100 μM, positive control
Excerpt: At present, it is believed that absolute or relative deficiencies of the central monoamine neurotransmitters 5-hydroxytryptamine (5-HT), norepinephrine (NA) and dopamine (DA) are closely related to depression and anxiety.
Synaptosomes were separated using methods in literature to prepare brain synaptosomes. SD rats were rapidly decapitated with a small animal decapitator. After decapitation, brains were taken out quickly and precooled in an ice-water mixture, and the pia mater and vascular tissue were removed. Brain tissue was taken out. 10 times volume (ml/g) of 10 mM Tris HCl buffer (containing 0.32 M sucrose, pH 7.4) was added, an ultrasonic cell pulverizer was used for homogenization (maintaining at a low temperature), and the brain tissue was homogenized and centrifuged for 10 min (4° C., 1,000 g). After balanced centrifugation (1500 g, 10 min) at 4° C., precipitate was discarded, then supernatant was taken, and centrifugation (20000 g) was performed again for 30 min. The supernatant was discarded and the precipitate, i.e. crude extract of synaptic corpuscles, was retained. The precipitate was further suspended in 0.32 M cold sucrose solution and then carefully laid on 1.2 M and 0.8 M (10 ml each) cold sucrose gradient solutions which had been laid sequentially on the bottom of the tube, followed by balanced centrifugation (38000 g) at 4 °C for 60 min. A suspension band at the 0.8-1.2 M sucrose interface was carefully collected with a puncture needle, which was placed in 10 ml of 0.32 M cold sucrose solution and mixed well, and equilibrium centrifuged (20000 g) at 4 °C for 30 min. The precipitate was refined brain synaptosomes. […]
as §1

[5] = test system: pyramidal neurons in prefrontal PrL brain area; experiment: Brain slice electrophysiology, sEPSC of mPFC pyramidal neurons; type: cell-based, mice; settings: antagonist at working concentration 10 μM
Excerpt: 2) Brain Slice Electrophysiological Experiment: For Detecting Effect of Compound M2 on mPFC Excitatory Synaptic Transmission • Animal: neonatal mice C57 BL/6J (20-30 days). • Instrument: vibratome (Leica), brain slice electrophysiological system (Axon). • Brain slice electrophysiological experiment method • SEPSC experiment method: Neonatal C57 mice were anesthetized and then perfused with artificial cerebrospinal fluid (ACSF). After decapitation, brain tissue was taken quickly and sliced by vibratome, with a thickness of a brain slice being 300 μm. After the brain slices were incubated at 28 °C for 1 h, whole-cell recordings of mPFC pyramidal neurons were made using a voltage clamp (−70 mV) through a brain slice electrophysiological system. The baseline recording time was 6 min, and then a drug to be tested was added through a perfusion system (the drug was dissolved using ACSF), and the recording time after adding the drug was 6-10 min. Recorded data was analyzed using Minianalysis software, and effects of the drug to be tested on sEPSC frequency and amplitude of medial prefrontal pyramidal neurons in C57 mice were compared.
All data analysis was done using spss data processing software, and data was expressed by Mean±s.e.m. One-way ANOVA was used to analyze the effect of compound M2 and the effect of compound M2 under the action of dopamine receptor antagonists on sEPSC current: and paired t test was used to analyze sEPSC experimental results. * was marked when p<0.05.
During the experiment, 10 μM Bicuculine was added to the solution to block GABA receptor, so as to record sEPSC of pyramidal neurons. The experiment investigated effects of different concentrations of compound M2 on spontaneous excitatory postsynaptic […] (sEPSC) of pyramidal neurons in prefrontal PrL brain area, as shown in FIG. 2.

C57 BL/6J male mice = experiment: Forced swimming experiment in mice; type: in vivo; settings: 24 h after a single i.p. administration; fluoxetine 10 mg/kg, esketamine 10 mg/kg, M2 3-30 mg/kg
Excerpt: 1) Forced Swimming Experiment: Also Known as Despair Experiment, an Experiment Usually Used to Test Depression-Like Behavior of Mice
• Animal: C57 BL/6J male mice (18-20 g)
Intraperitoneal injection (i.p)

[6] = comparative study (Table 13), 20 mg/kg i.g.
[7] = comparative study (Table 13), 2.5 mg/kg i.g.
[8] = dosage exploration study (Table 12), 2.5 mg/kg i.g.

Br.NCCc1cc(O)c(O)cc1O [6-Hydroxydopamine hydrobromide]
inhibition of 3H-DA reuptake by synaptosomes [1]: 100%

CC(C)CNC(=O)/C=C/c1cc(I)c2c(c1)OCO2 [Compound II-3]
effective anxiolytic dosage in mice elevated plus maze experiment (mice [2]): 10 mg/kg | OE % (ICR mice; [6]): 41.04 ± 9.52 % | OT % (ICR mice; [6]): 42.99 ± 11.82 % | Number of times of drinking water (SD rats; 10 mg/kg i.g.): 363.96 ± 145.26

CC(C)CNC(=O)/C=C/c1cc(Cl)c2c(c1)OCO2 [Compound II-4]
effective anxiolytic dosage in mice elevated plus maze experiment (mice [2]): 10 mg/kg | OE % (ICR mice; [6]): 46.79 ± 9.31 % | OT % (ICR mice; [6]): 53.45 ± 8.33 % | anxiolytic activity in elevated plus maze vs solvent control group (ICR mice; comparative study, single intragastric administration of 20 mg/kg): significant anxiolytic activity | reserpine-induced body temperature decrease and akinesia in mice, degree of eye closure (mice [3]): significantly antagonizing | Number of times of drinking water (SD rats; 10 mg/kg i.g.): 387.07 ± 57.31

CNCCCN1c2ccccc2CCc2ccccc21 [Desipramine hydrochloride]
inhibition of 3H-NA reuptake by synaptosomes [4]: 100%

Clc1ccc2c(c1)C(c1ccccc1)=NCc1nncn1-2 [Estazolam]
OE % (ICR mice; [7]): 69.60 ± 15.12 % | OT % (ICR mice; [7]): 73.46 ± 20.29 % | OE % (ICR mice; [8]): 42.78 ± 15.27 % | OT % (ICR mice; [8]): 50.12 ± 12.76 % | Number of times of drinking water (SD rats; 1.24 mg/kg i.g.): 540.41/kg2.25*

CCN1CCCC1CNC(=O)c1cc(S(N)(=O)=O)ccc1OC (centres unmarked) [Sulpride]
blocking of the enhancement effect of 150 μM compound M2 on sEPSC distribution frequency [5]: can block the enhancement effect; also recorded: significantly block

CN[C@]1(c2ccccc2Cl)CCCCC1=O [esketamine, Esketamine]
antidepressant-like effect (C57 BL/6J male mice): had antidepressant-like effect

CNCCC(Oc1ccc(C(F)(F)F)cc1)c1ccccc1 (centres unmarked) [fluoxetine, Fluoxetine]
antidepressant-like effect (C57 BL/6J male mice): no antidepressant-like effect
